Conditions: Liquid, Ebulliometric method (Recirculating still)

CON=C(C)C [propan-2-one O-methyl oxime]
Conditions | vapor or sublimation pressure [kPa]
307.8 K | 21.3
312.4 K | 26.3
316.6 K | 32.3
319.6 K | 36.3
322.9 K | 42.3
327.6 K | 51.3
330 K | 56.3
332.2 K | 61.3
334.2 K | 66.3
336.1 K | 71.3
337.7 K | 76.3
339.6 K | 81.3
341 K | 86.3
342.6 K | 91.3
344.1 K | 96.3
